# Assays:
# [1] = tested on: RL95-2 endometrial cancer cell mouse xenografts; experiment: RL95-2 human endometrial cancer subcutaneous xenograft model; format: in vivo, nude mice
# Protocol: Drug A was prepared by dilution with normal saline, and drug B was prepared using 0.5% HPMC; Human endometrial cancer cells RL95-2 were cultured in vitro in a cell incubator at 37°C and 5% CO2. Routine digestion treatment and passaging were carried out twice a week using trypsin-EDTA. When the cell confluence was 80%-90% and the number of cells reached the requirement, the cells were collected, counted, and inoculated.
# RL95-2 cells were resuspended in PBS, the density after resuspension was 100 × 10^6/mL, the resuspended cells were mixed with an equal volume of Matrigel, inoculated subcutaneously into the right dorsal side of each mouse, 0.1 mL was inoculated into each mouse (5 × 10^6 cells/animal), and when the average tumor volume grew to 100-150 mm^3, grouping was carried out (D1), and administration was started on the day of grouping. The mice were administered by gavage (p.o.) once daily; the mice were administered by tail vein injection (i.v.) as a single administration; the administration volume was 10 mL/kg; the vehicle group was given the same volume of "vehicle"; the specific administration doses and administration regimens are shown in Table 5-1. Tumor volume was measured, mouse body weight was weighed, and data were recorded.
# (§1) The experimental indicator was to examine the effect of the drug on tumor growth, and the specific indicator was the tumor growth inhibition rate TGI (%).
# The tumor diameter was measured twice a week with a vernier caliper, and the calculation formula for tumor volume (V) was:V = 1/2×a×b^2 where a, b respectively indicate length and width.
# (§2) Calculation of TGI (%): When there was no tumor regression, TGI (%) = [1 - (average tumor volume of a certain treatment group at the end of administration - average tumor volume of that treatment group at grouping)/(average tumor volume of the vehicle control group at the end of treatment - average tumor volume of the vehicle control group at grouping)] × 100%. When there was tumor regression, TGI (%) = [1 - (average tumor volume of a certain treatment group at the end of administration - average tumor volume of that treatment group at grouping)/average tumor volume of that treatment group at grouping] × 100%.
# (§3) At the end of the experiment, upon reaching the experimental endpoint, or when the average tumor volume reached 2000 mm^3, the animals were euthanized under CO2 anesthesia, and then dissected for tumor collection and photographing.
# The experimental data were analyzed and plotted using GraphPad Prism 9.4. Based on the tumor volume data of each group at different time points, Dunnett's multiple comparisons test in Two-way ANOVA was used for statistical analysis to evaluate differences among groups. […] Table 5-1. Dosing regimen of drug A in combination with drug B in the RL95-2 model
# [2] = tested on: human ovarian cancer OV0243; experiment: OV0243 human ovarian cancer PDX subcutaneous xenograft model; format: in vivo, BALB/c nude mice; settings: for TGI (%): D27, tumor regression formula
# Protocol: • Drug A was prepared by dilution with normal saline, and drug B was prepared using 0.5% HPMC; • OV0243 (mild cachexia), human ovarian cancer tumor tissue, was provided by Crown Bioscience (Beijing) Inc. • BALB/c nude mice, female, body weight 16-22 g, were purchased from Jiangsu Jicui Yaokang Biotechnology Co., Ltd.
# OV0243 human ovarian cancer tissue was uniformly cut into tumor pieces with a diameter of 2-3 mm and inoculated subcutaneously at the right front scapular region of BALB/c nude mice, and tumor growth was regularly observed. When the average tumor volume reached 100-150 mm^3, random grouping was performed based on the tumor size and mouse body weight in accordance with Table 4-1. The tumor diameter was measured twice a week with a vernier caliper, and the calculation formula for tumor volume (V) was:V = 1/2×a×b^2 where a, b respectively indicate length and width.
# as §1, §2, §3
# The experimental data were analyzed and plotted using GraphPad Prism 9.4. Based on the tumor volume data of each group at different time points, Dunnett's multiple comparisons test in Two-way ANOVA was used for statistical analysis to evaluate differences among groups.
# The invivoSyn method was used to analyze the synergistic effect of the combination treatment. First, based on the exponential growth model, the tumor growth rate of each mouse (eGR, exponential growth rate) and the average tumor growth rate of each group (eGRg) were calculated. Then, the relative survival rate of the treatment group and the control group was calculated by using the conditional probability formula Pr(T|C)=ST/SC, wherein SA, SB, and SAB are respectively defined as the relative survival rates of single-drug group A, single-drug group B, and the combination administration group at time point t. SA = (exp(eGRA*t))/(exp(eGRC*t)) [formula] SB = (exp(eGRB*t))/(exp(eGRC*t)) [formula] SAB = (exp(eGRAB*t))/(exp(eGRC*t)) [formula]
# Based on the highest single-drug effect model (HSA, Highest Single Agent), the expected survival rate E(SAB) of the combination administration group was calculated. For the HSA model, E(SAB) = min(SA, SB). CI (Combination Index) is defined as the ratio of the observed survival rate SAB of the combination administration group to E(SAB), while the synergistic effect score (SS, Synergy Score) is defined as the percentage difference between E(SAB) and SAB. When the CI value is less than 1 or the SS value is greater than 0, the combination is considered to have a synergistic effect. p values and confidence intervals were calculated using the stratified bootstrap method (Stratified bootstrap). Table 4-1. Dosing regimen of drug A in combination with drug B in the OV0243 model
# [3] = D0 (at grouping), Drug B 1 mg/kg p.o. QD*28 times
# [4] = D28, Drug B 1 mg/kg p.o. QD*28 times
structure (smiles),measurement,setting,value
"CCc1cc2ncc(CN3CC=C(c4ccc(C(=O)NC)nc4)CC3)cc2[nH]c1=O [Drug B, 1'-((7-ethyl-6-oxo-5,6-dihydro-1,5-naphthyridin-3-yl)methyl)-N-methyl-1',2',3',6'-tetrahydro-[3,4'-bipyridine]-6-carboxamide]",Average tumor volume (mm^3) + SEM,[1]; [3],134+7 mm^3
same,Average tumor volume (mm^3) + SEM,[1]; [4],1097+109 mm^3
same,T/C (%),[1]; [4],95.50%
same,TGI (%),[1]; [4],5.08%
same,tolerability,[1]; RL95-2 tumor-bearing mice,could well tolerate
same,tumor growth inhibition,[1]; RL95-2 xenograft mouse model,had no obvious inhibitory effect on tumor growth
same,Average tumor volume (mm^3) ± SEM,"[2]; D0 (at grouping), Drug B 0.1 mg/kg p.o. QD*28 times",137±2 mm^3
same,Average tumor volume (mm^3) ± SEM,[2]; [3],138±2 mm^3
same,TGI (%),[2]; Drug B 0.1 mg/kg p.o. QD*28 times,129.84%
same,TGI (%),[2]; Drug B 1 mg/kg p.o. QD*28 times,191.94%
same,Average tumor volume (mm^3) ± SEM,"[2]; Day 27, Drug B 0.1 mg/kg p.o. QD*28 times",96±14 mm^3
same,Average tumor volume (mm^3) ± SEM,"[2]; Day 27, Drug B 1 mg/kg p.o. QD*28 times",11±6 mm^3
same,Average tumor volume (mm^3) ± SEM,"[2]; Day 55, Drug B 0.1 mg/kg p.o. QD*28 times",3±3 mm^3
same,Average tumor volume (mm^3) ± SEM,"[2]; Day 55, Drug B 1 mg/kg p.o. QD*28 times",0±0 mm^3
same,Average tumor volume (mm^3) ± SEM,"[2]; Day 83 (day 56 after drug withdrawal), Drug B 0.1 mg/kg p.o. QD*28 times",78±27 mm^3
same,Average tumor volume (mm^3) ± SEM,"[2]; Day 83 (day 56 after drug withdrawal), Drug B 1 mg/kg p.o. QD*28 times",50±23 mm^3
same,"tumor growth inhibition, monotherapy","[2]; OV0243 model, conclusion",significantly inhibit the growth of xenograft tumors in nude mice
same,tolerability,[2]; OV0243 tumor-bearing mice,could well tolerate
same,body weight decrease of 1 animal,"[2]; drug B 0.1 mg/kg, by day 51, euthanasia",greater than 20%
same,body weight decrease of 1 animal,"[2]; drug B 0.1 mg/kg, day 23",17.39%
same,animals with partial tumor regression,"[2]; drug B 0.1 mg/kg, day 27",5/6
same,average body weight change rate,"[2]; drug B 0.1 mg/kg, day 27",2.18%
same,animals with complete tumor regression,"[2]; drug B 1 mg/kg, day 27",3/6
same,animals with partial tumor regression,"[2]; drug B 1 mg/kg, day 27",3/6
same,average body weight change rate,"[2]; drug B 1 mg/kg, day 27",3.75%
